“And” between values parts separate entries of the source, which are not always exact repeats. Equal entries are not always repeated. Where two headings read alike, the source gives them in different places.
Key:
[1] = Toxicokinetics in dogs after intra-articular injection: synovial fluid concentrations; assay type: in vivo, Beagle dogs; set-up: Synovial concentration of BETi1: unit not given here; conditions: for AUC(0-t) / Cmax / Tmax / concentration at 4 weeks: Beagle, dog, synovial fluid; for AUC(0-t): read-out: Synovia AUC0-672 h; for concentration at 4 weeks: other: intra-articular injection, read-out: synovial level at four weeks post-treatment
Method: 16 Beagle dogs (8 males, 8 females) were assigned to four treatment groups to determine toxicity of BETi1 formulations following intra-articular injection.
The experimental groups are presented below: • Group 1: Control; 0 mg of BETi1/animal dose • Group 2: Low Dose; 7.5 mg of BETi1/animal dose • Group 3: Mid Dose; 75 mg of BETi1/animal dose • Group 4: High Dose; 150 mg of BETi1/animal dose
The control and BETi1 dose formulations were comprised as follows: Control: Vehicle (0.5% sodium carboxymethylcellulose; 0.1% polysorbate 80 in saline) • Low Dose: 0.75% w/w BETi1 suspended in Vehicle • Mid Dose: 7.5% w/w BETi1 suspended in Vehicle • High Dose: 15% w/w BETi1 suspended in Vehicle
Study dogs were administered control treatment or treatment with a BETi1 formulation via intra-articular injection only to their right knee joints. Dosage volume was 1 mL/knee.
Approximately 80 μL of synovial fluid was collected from animals from the right knee joint and placed into appropriately labeled tubes onto wet ice. Synovia was then transferred into labeled clear polypropylene tubes and frozen in the upright position over dry ice and stored in a freezer set to maintain <−60° C. until shipped on dry ice for analysis.
Quantification of BETi1 concentrations in plasma and synovial fluid was performed using a qualified liquid chromatographic triple quadrupole mass spectrometric (LC-MS/MS) method. Synovial fluids were centrifuged before analysis.
Toxicokinetic (TK) analysis of BETi1 plasma concentration-time and synovial fluid concentration-time data was performed. TK parameter values including maximum plasma/synovial fluid concentrations (Cmax), time to reach maximum concentrations (Tmax), and area under the plasma/synovial fluid concentrations vs. time curve (AUC) from time zero to 672-hour (AUC0-672h) was determined. Values that were below the lower limit of quantification (BLQ) were set to zero in the calculation of mean concentrations. When more than half of individual values at a single time point were BLQ, mean values were reported as BLQ.

E-cadherin = assay: RHE vitiligo model: E-cadherin secretion by ELISA; assay type: cell-based, human; conditions: for E-Cad (% stimulated ctl) Mean / E-Cad (% stimulated ctl): TNF-α/IFN-γ stimulated RHE; for E-Cad (% stimulated ctl) Mean / E-Cad (% stimulated ctl) / Mean conc E-Cad / Conc E-Cad: 48 h; for E-Cad (% stimulated ctl) / Conc E-Cad: replicates N1-N3; for Mean conc E-Cad / Conc E-Cad: culture medium of RHE, TNF-α 12 ng/ml/IFN-γ 12 ng/ml; for E-Cadherin secretion: RHE stimulated with TNF-α/IFN-γ
Method: […] Three epidermis samples per condition are fixed in 4% formaldehyde solution and embedded in paraffin for further analysis (morphology analysis, melanin and melanocytes localisation/quantification). Three other epidermis samples per condition are put in a specific lysis buffer for total RNA extraction.
At the end of the treatments, culture media is collected (from 3 epidermis per condition), aliquoted and stored at −20° C. until use in ELISA assays. The quantity of MMP-9 secreted by the epidermis at the end of the treatments is analysed using the human MMP-9 Quantikine ELISA kit (Bio-Techne; DMP900). The secretion of E-cadherin in culture media is measured using to human E-cadherin Quantikine ELISA kit (Bio-Techne; DCADE0) dedicated for the measurement of natural human E-cadherin in culture supernates, serum, plasma, urine, and saliva.
The ELISAs are performed following the instructions of the supplier. The quantities of MMP-9 and E-cadherin are determined by comparisons with standard curves performed with recombinant human MMP-9 or E-cadherin provided in the kits.
Quantification of secretion of MMP-9 and E-cadherin by ELISA from collected culture medium was conducted in accordance with Method E. The results, shown in FIG. 5A and FIG. 5B are based on Tables 23 and 24 respectively and presented in percentage of release in comparison to the stimulated control. A statistical analysis (student t-test) was performed to compare the effects of the treatments with the formulations to the vehicle (with $: 0.05>p>0.01; $$: 0.01>p>0.001; and $$$: p<0.001). The same analysis was performed to compare the effects of the vehicle and of the unstimulated control to the stimulated control (with *: 0.05>p>0.01; **: 0.01>p>0.001; and ***: p<0.001). The analysis was performed from three replicates per condition (n=3). The mean of the three values and the standard deviation are presented on the histograms in FIG. 5A and FIG. 5B. As shown in Table 21 and FIG. 5A and consistent with the results of Part A, MMP-9 secretion was increased following the stimulation with the cytokines, which validates the assay.

[2] = tested on: anti collagen antibodies induced arthritis (ACAIA); assay: ACAIA mice: hot plate withdrawal latency; assay type: in vivo, Balb/c mice
Method: On days 0, 5 and 11 animals are placed on hot plate apparatus (53±1° C.) and the time until the first response is observed and recorded.

With Cn1cc(-c2cccc(O)c2Oc2ccccc2)c2cc[nH]c2c1=O [BETi1] the “Synovial concentration of BETi1” value ([1]; 7.5 mg intra-articular, 72 h (day 3)) was 125.625, the “Synovial concentration of BETi1” value ([1]; 7.5 mg intra-articular, 336 h (day 14)) was 0 and the “Synovial concentration of BETi1” value ([1]; 7.5 mg intra-articular, 504 h (day 21)) was 0. For the same compound, the “Synovial concentration of BETi1” value ([1]; 7.5 mg intra-articular, 672 h (day 28), in ng/mL) was 0.685, the “Synovial concentration of BETi1” value ([1]; 7.5 mg intra-articular, […] (day 7)) was 1.58 and the “Synovial concentration of BETi1” value ([1]; 75 mg intra-articular, 72 h (day 3)) was 27050. The “Synovial concentration of BETi1” value ([1]; 75 mg intra-articular, 336 h (day 14)) was 6805, the “Synovial concentration of BETi1” value ([1]; 75 mg intra-articular, 504 h (day 21)) was 937 and the “Synovial concentration of BETi1” value ([1]; 75 mg intra-articular, 672 h (day 28)) was 316. For the same compound, the “Synovial concentration of BETi1” value ([1]; 75 mg intra-articular, […] (day 7)) was 33700, the “Synovial concentration of BETi1” value ([1]; 150 mg intra-articular, 72 h (day 3)) was 47600 and the “Synovial concentration of BETi1” value ([1]; 150 mg intra-articular, 336 h (day 14)) was 18070. The “Synovial concentration of BETi1” value ([1]; 150 mg intra-articular, 504 h (day 21)) was 7765, the “Synovial concentration of BETi1” value ([1]; 150 mg intra-articular, 672 h (day 28)) was 4375 and the “Synovial concentration of BETi1” value ([1]; 150 mg intra-articular, […] (day 7)) was 36000. It also gave an AUC(0-t) ([1]; 7.5 mg/animal, Male, Study Day 1) of 25.4 µg·h/mL, a Cmax ([1]; 7.5 mg/animal, Male, Study Day 1, read-out: Synovia Cmax) of 244 ng/mL and a Tmax ([1]; 7.5 mg/animal, Male, Study Day 1, read-out: Synovia Tmax) of 120 h. For the same compound, the AUC(0-t) ([1]; 75 mg/animal, Female, Study Day 1) was 6090 µg·h/mL, the Cmax ([1]; 75 mg/animal, Female, Study Day 1, read-out: Synovia Cmax) was 43700 ng/mL and the Tmax ([1]; 75 mg/animal, Female, Study Day 1, read-out: Synovia Tmax) was 120 h. It also gave an AUC(0-t) ([1]; 75 mg/animal, Male, Study Day 1) of 7890 µg·h/mL, a Cmax ([1]; 75 mg/animal, Male, Study Day 1, read-out: Synovia Cmax) of 47600 ng/mL and a Tmax ([1]; 75 mg/animal, Male, Study Day 1, read-out: Synovia Tmax) of 120 h. It also gave an AUC(0-t) ([1]; 150 mg/animal, Female, Study Day 1) of 11300 µg·h/mL, a Cmax ([1]; 150 mg/animal, Female, Study Day 1, read-out: Synovia Cmax) of 46100 ng/mL and a Tmax ([1]; 150 mg/animal, Female, Study Day 1, read-out: Synovia Tmax) of 204 h. For the same compound, the AUC(0-t) ([1]; 150 mg/animal, Male, Study Day 1) was 12500 µg·h/mL, the Cmax ([1]; 150 mg/animal, Male, Study Day 1, read-out: Synovia Cmax) was 63200 ng/mL and the Tmax ([1]; 150 mg/animal, Male, Study Day 1, read-out: Synovia Tmax) was 120 h. It also gave a concentration at 4 weeks ([1]; both sexes, 75 mg/animal, intra-articular, 75 mg) of 1 µM, a concentration at 4 weeks ([1]; both sexes, 150 mg/animal, intra-articular, 150 mg) of 13 µM and a Tmax ([1]; both sexes, intra-articular, calculated, read-out: Tmax, synovial fluid (converted)) of roughly 120 h. For the same compound, the Cmax ([1]; both sexes, intra-articular, highest dose (150 mg), read-out: Cmax, synovial fluid) was 50000 ng/mL, the “E-Cad (% stimulated ctl) Mean” value (E-cadherin; BETi1 0.001%) was 138% and the “E-Cad (% stimulated ctl)” value (E-cadherin; BETi1 0.001%) was 129% (2×) and 156%. For the same compound, the “Mean conc E-Cad” value (E-cadherin; BETi1 0.001%) was 3.2 ng/mL, the “Conc E-Cad” value (E-cadherin; BETi1 0.001%) was 3.0 ng/ml (2×) and 3.6 ng/ml and the “E-Cad (% stimulated ctl) Mean” value (E-cadherin; BETi1 0.01%) was 118%. The “E-Cad (% stimulated ctl)” value (E-cadherin; BETi1 0.01%) was 117% and 109% and 128%, the “Mean conc E-Cad” value (E-cadherin; BETi1 0.01%) was 2.7 ng/mL and the “Conc E-Cad” value (E-cadherin; BETi1 0.01%) was 2.7 ng/mL and 2.5 ng/mL and 2.9 ng/mL. The “E-Cad (% stimulated ctl) Mean” value (E-cadherin; BETi1 0.1%) was 59%, the “E-Cad (% stimulated ctl)” value (E-cadherin; BETi1 0.1%) was 61% and 56% and 62% and the “Mean conc E-Cad” value (E-cadherin; BETi1 0.1%) was 1.4 ng/mL. The “Conc E-Cad” value (E-cadherin; BETi1 0.1%) was 1.4 ng/ml (2×) and 1.3 ng/ml, the “E-Cad (% stimulated ctl) Mean” value (E-cadherin; BETi1 1%) was 72% and the “E-Cad (% stimulated ctl)” value (E-cadherin; BETi1 1%) was 71% and 72% and 74%. The “Mean conc E-Cad” value (E-cadherin; BETi1 1%) was 1.7 ng/mL, the “Conc E-Cad” value (E-cadherin; BETi1 1%) was 1.6 ng/ml and 1.7 ng/ml (2×) and the E-Cadherin secretion (E-cadherin; listed as 1% BETi1) was “about 118%”. The E-Cadherin secretion (E-cadherin; listed as BETi1 0.1%) was 59%, the “Hot Plate Change in withdrawal latency (Avg.)” value (“Hot Plate Change” for short) ([2]; 0.01 mg/kg IA, Baseline) was 11.57 s and the “Hot Plate Change” value ([2]; 0.01 mg/kg IA, Day 5) was 11.86 s. For the same compound, the “Hot Plate Change” value ([2]; 0.01 mg/kg IA, Day 11) was 12.00 s, the “Hot Plate Change” value ([2]; 0.1 mg/kg IA, Baseline) was 11.14 s and the “Hot Plate Change” value ([2]; 0.1 mg/kg IA, Day 5) was 10.43 s. For the same compound, the “Hot Plate Change” value ([2]; 0.1 mg/kg IA, Day 11) was 9.57 s, the “Hot Plate Change” value ([2]; 1 mg/kg IA, Baseline) was 11.71 s and the “Hot Plate Change” value ([2]; 1 mg/kg IA, Day 5) was 11.57 s. The “Hot Plate Change” value ([2]; 1 mg/kg IA, Day 11) was 11.29 s, the “Hot Plate Change” value ([2]; 10 mg/kg IA, Baseline) was 10.57 s and the “Hot Plate Change” value ([2]; 10 mg/kg IA, Day 5) was 12.00 s. For the same compound, the “Hot Plate Change” value ([2]; 10 mg/kg IA, Day 11) was 11.00 s.

From patent US20250339409A1, “USES OF PAN BET INHIBITORS” (VYNE THERAPEUTICS INC., priority 2021, published 2025)
